Assay results: PubChem BioAssay (NCI)
Where “and” joins values, the source holds several entries; their conditions need not be identical. Equal entries are not always repeated.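 These data come from cells grown in 96-well plates and exposed to compound for 48 hours at five concentrations. Here, GI50 denotes the concentration required for 50% inhibition of growth. The concentration for full growth arrest is given as TGI.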

Test system: MDA-MB-468 breast
Experiment: inhibition of tumour cell growth, NCI panel, 48 h

SMILES	GI50	TGI
O=C(Nc1ccc(Br)cc1)c1cc(Br)cc(Br)c1O	2.32 µM	5.66 µM
O=C1NC(=O)C(c2ccccc2Cl)=C1Nc1cccc(O)c1	0.706 µM	7.16 µM
Cc1ccc2c(c1)sc(-c1ccc(N(C)C)cc1)[n+]2C	0.302 µM	5.74 µM
CCOC(=O)/C=C/c1ccc(C(=O)OCC)[nH]1	2.53 µM	8.16 µM
COc1cccc2c(=O)c3c(sc12)c(NCCCN)nc1ccccc13	1.63 µM	3.2 µM
CCc1ccc(C2=C(O)C(=O)C(c3ccc(CC)cc3)=C(O)C2=O)cc1	1.86 µM	6.26 µM
COC(=O)c1ccc2c(c1)c1c(C)c3cnccc3c(C)c1n2C	0.225 µM	0.677 µM
CC1(C)C(=O)/C(=C\c2ccco2)C[C@]2(C)[C@H]3CC=C4[C@@H]5C[C@](C)(C(=O)O)CC[C@]5(C)CC[C@@]4(C)[C@]3(C)CC[C@@H]12	10.7 µM	26.5 µM
CC(=O)Oc1ccc2c(c1)CC[C@@H]1C2[C@@H](O[N+](=O)[O-])C[C@@]2(C)C1CC[C@@H]2O (some centres undefined)	22.5 µM	89.2 µM
CCN(CC)C(=S)SSC1CCCCC1	19.4 µM	49.4 µM
CC1=CC[C@@H]2C(C)(C)[C@@H](O)CC[C@@]2(C)[C@@H]1COc1ccc2ccc(=O)oc2c1	3.11 µM	15 µM
Cc1ccc(S(=O)(=O)NCCN2c3nc4ccccc4cc3Sc3cc4ccccc4nc32)cc1	13.1 µM	> 100 µM
COc1ccc(-c2cn3ccnc3c(-c3ccc4ncn(C5CCCCC5)c4c3)n2)cc1	0.863 µM	> 100 µM
O=[N+]([O-])/C=C\c1ccc2c(c1)OCO2	2.17 µM	5.82 µM
Cc1cc(O)cc(C)c1/C=C/c1cncc(C(=O)N(C)C)c1	> 25 µM	> 25 µM
ClCCn1cnc2c(SCc3ccccc3)ncnc21	11.1 µM	> 100 µM
O=Nc1c2cccnc2n2nnc3ccc(Cl)cc3c12	0.136 µM	0.701 µM
COc1cccc(C2c3cc4c(cc3OC(N3CCOCC3)C2C)OCO4)c1O (centres undefined)	4.26 µM	> 100 µM
OC1CCC(Oc2cccc3cnc(Nc4ccc5nc[nH]c5c4)nc23)CC1 (centres undefined)	0.327 µM	1.37 µM
C=C(CNCCO)[C@@H]1CC[C@]2(CO)CC[C@]3(C)[C@H](CC[C@@H]4[C@@]5(C)CCC(NCCc6ccc(O)cc6)C(C)(C)[C@@H]5CC[C@]43C)[C@@H]12 (some centres undefined)	0.782 µM	2.34 µM
CCC(=O)N1C/C(=C/c2ccc(OC)cc2)C(=O)/C(=C/c2ccc(OC)cc2)C1	1.85 µM	4.92 µM
CC/C=C\C[C@H](O)C/C=C1/C(=O)C=C[C@@H]1C/C=C\CCCC(N)=O	1.12 µM	2.86 µM
CCN(CC)CC(C)Nc1ccc(C)c2sc3ccccc3c(=O)c12 (centres undefined)	2.57 µM	7.57 µM
O=C(N/N=C/c1ccc(F)cc1)c1[nH]c2ccc(I)cc2c1-c1ccccc1	0.345 µM	13.9 µM
Cn1cnc([N+](=O)[O-])c1Sc1ncnc2nc[nH]c12	2.1 µM and 3.37 µM	70.3 µM and > 100 µM
CS(=O)(=O)Nc1cc(-c2ccc3ncc(C#N)c(NCc4ccccc4F)c3c2)cnc1Cl	0.0781 µM	1.08 µM
Cc1ccc(-c2cc3nc(-c4ccccc4)nc(C(Cl)Cl)n3n2)cc1	0.383 µM	1.31 µM
